Laboratory results published in PMC6208284 (Phytotherapy Research, 2018).

What was measured:
[1] = test system: Leishmania tarentolae promastigotes (LtP); assay: Superoxide radical detection in LtP by CMH/ESR; format: cell-based; conditions: 5 μM, positive control, with DFO and DTPA
Method: Detection of superoxide radicals was performed using CMH as reaction partner and measuring the formed stable nitroxyl radicals by electron spin resonance (ESR) spectroscopy. Measurements were performed in PBS (136 mM NaCl, 1.15 mM KH2PO4, 14 mM Na2HPO4, and 2.7 mM KCl, pH 7.4) containing 15 mM glucose, 400 μM CMH, and 100 μM DFO (desferrioxamine mesylate) and 25 μM DTPA. Usually, these assays are performed in the presence of iron chelators (DFO and DTPA) to prevent CMH interaction with free Fe^3+ leading to CM^● unrelated to superoxide radicals. Before the measurements, LtP suspensions were washed twice with PBS to remove the medium. Typical experiments contained 5 × 10^8 LtP cells/ml. Stock solutions of EO compounds dissolved in DMSO were added. The influence of Asc (6–700 μM) on the CMH oxidation rate by LtP was assessed immediately and after prolonged incubation time (1 hr between Asc and CMH addition). The influence of iron‐dependent Asc activation in LtP on CMH oxidation was studied in the absence of iron chelators DFO and DTPA. Prior to the ESR measurement, 400 μM CMH was added. Afterwards, 17 μl of suspension was aspirated in gas‐permeable Teflon tubes (ID 0.7 mm). This capillary tube was placed in the resonator of the ESR instrument (Bruker EMX, split ring MD5, Germany), and 10 sequential measurements were performed. The following instrument settings were used: microwave frequency 9.682 GHz, modulation frequency 100 kHz, modulation amplitude 1 G, time constant 0.082 s, center field 3,446 G, scan rate 71 G/min, sweep width 100 G, scan time 84 s, and attenuation CMH: 7.96 × 10^3. From the ESR spectra, the middle peak intensity was retrieved, and concentrations of oxidized CMH were obtained by comparison with a standard curve prepared from 3‐carboxy‐proxyl solutions with defined concentrations. Four replicate measurements were performed for each condition.

[2] = design: method as in Rappoport & Frankel, 1967; conditions: ref Rappoport & Frankel, 1967; cited from earlier work
[3] = test system: Leishmania tarentolae promastigotes (LtP); assay: Immediate mitochondrial uncoupling in LtP, OxoPlates with oligomycin; format: cell-based; conditions: positive control uncoupler, 0.7–5 μM, LtP + 5 μM Oligo
Method: U‐shaped 96‐well OxoPlates (OP96U PreSens, Germany) with integrated fluorescence oxygen sensors were used for parallel LtP experiments. Oxygen concentrations were measured using a PerkinElmer Enspire fluorescence plate reader using excitation wavelength 540 nm and two emission wavelengths (reference dye 590 nm, IRef, and O2‐sensing dye 650 nm, IInd). The oxygen concentration (μM O2) was calculated according to manufacturer's instructions as described previously (Monzote et al., 2016). Measurements with LtP were performed in air‐saturated BHI medium. […] Immediately before the measurement, 150 μl of well‐aerated cell suspensions (13 × 10^7 LtP per ml) was added to the respective wells. Finally, on the top of each well, 50 μl of paraffin oil was layered. Two minutes after mixing, the fluorescence measurements at 27 °C were started, and eight measurements at 5‐min intervals were performed. From the linear part of the O2 decay, the slopes were calculated and corrected for the medium drift for further statistic evaluation. All measurements were performed at least in triplicate. For bioenergetic characterization, the ATP synthase inhibitor Oligo (5 μM) and as positive control CCCP (0.7–5 μM) were used. Respiratory control ratio (RCR) was calculated from respiration rate in the presence of Oligo and compounds/uncoupler divided by the rate in the presence of Oligo.

With CCCCCC[C@H]1C(=O)O[C@H](C)[C@H](NC(=O)c2cccc(NC=O)c2O)C(=O)O[C@@H](C)[C@@H]1OC(=O)CC(C)C [AA, antimycin A, reference compound] the “CM● formation (superoxide radicals) in LtP” value [1] was “showed an increase”.

In the case of O=[N+]([O-])c1ccc(O)c([N+](=O)[O-])c1 [2,4‐dinitrophenol, reference compound], the pKa value [2] is listed as “around 4”.

In the case of N#CC(C#N)=NNc1cccc(Cl)c1 [CCCP, carbonyl cyanide‐m‐chlorophenylhydrazone, reference compound], the “Oligo‐inhibited respiration in LtP” value [3] is reported as “clear increase”.
